The record followed here is paper PMC3640414 (Journal of Medicinal Chemistry, 2013).

The subject of data set [1] is U2OS (osteosarcoma) cells. The experiment in a line: WST-1 viability assay, U2OS cells. As to conditions: Homo sapiens, 72 h, read-out: IC50, U2OS (osteosarcoma). The data set is classed as cell-based. A general note: Tetrazolium dyes change colour on reduction, which living cells bring about.
Data set [2] deals with HeLa (cervical adenocarcinoma) cells. The experiment in a line: WST-1 viability assay, HeLa cells. The data set is classed as cell-based. As to conditions: Homo sapiens, 72 h, read-out: IC50, HeLa (cervical adenocarcinoma).
The subject of the next data set is MV4;11 (AML) cells. The experiment in a line: MTS cytotoxicity assay, MV4;11 cells. The data set is classed as cell-based. As to conditions: Homo sapiens, viability after 72 h.
Data set [3] can be described thus: Stability of 8 in buffer (chiral HPLC). The data set is classed as physicochemical. As to conditions: 2 h in 50 mM HEPES, 0.01% TWEEN, 0.1% BSA. How it is done: vacuum manifold with the inert gas passing through a bed of activated 4 Å molecular sieves and self-indicating silica gel. Cs2CO3, K2CO3 and activated MnO2 were dried in an oven prior to use.
PhMgBr (in THF) was titrated against salicaldehyde phenylhydrazone prior to use, according to the procedure of Love and Jones.9
Reactions with microwave irradiation were carried out in a Biotage Initiator microwave […]
In vacuo refers to the use of a rotary evaporator attached to a diaphragm pump. Brine refers to a saturated aqueous solution of sodium chloride. Petroleum ether refers to the fraction boiling between 30–40 °C unless otherwise stated.
Stability of 8 in buffer: 0.5 mg of (+)-8 in 10 μL DMSO was suspended in buffer (50 mM HEPES, 0.01% TWEEN, 0.1% BSA). […]
Cytotoxcity of 8 in HeLa and U2OS cells: HeLa cells were grown and maintained in DMEM supplemented with L-glutamine and 10% fetal calf serum; U2OS cells were grown and maintained in McCoy’s medium supplemented with 10% fetal calf serum. […] After 24 h or 72 h, 10 μL of WST-1 (Roche Diagnostics) was added to the culture medium and cell viability was determined by colorimetric WST-1 conversion assay. Formazan dye formation was measured at 450 nm using a Molecular devices Spectramax Plus384 microplate reader. Relative WST-1 conversion in treated cells compared with untreated control cells was calculated after […]

Data set [4] concerns the target bromodomain of cAMP response element binding protein (CREB) binding protein (UniProt Q92793 1081-1197). The experiment in a line: AlphaScreen or HTRF; peptide displacement ALPHA assay; CREBBP bromodomain and biotinylated H3K56Ac peptide, protein and peptide concentration 200 nM (Table 1) or 50 nM (Table 2); small-molecule competitors; duplicate on the same plate. As to conditions: both partners purified.

Sequence of bromodomain of cAMP response element binding protein (CREB) binding protein (Q92793 1081-1197): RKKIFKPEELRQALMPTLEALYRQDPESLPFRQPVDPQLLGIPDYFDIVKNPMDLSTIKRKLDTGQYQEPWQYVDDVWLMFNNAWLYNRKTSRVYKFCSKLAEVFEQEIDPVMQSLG

As to `Cc1sc2c(c1C)C(c1ccc(Cl)cc1)=N[C@@H](CC(=O)OC(C)(C)C)c1nnc(C)n1-2` [(+)-JQ1, reference compound], the IC50 (commonly the concentration at which inhibition is half-maximal) is 2.9 µM in data set [1] and 2.1 µM in data set [2]. In the data set on MV4;11 (AML) cells, `CN1CCC(CNc2ccc3ncc(-c4cccc(OC(F)(F)F)c4)n3n2)CC1` [SGI-1176, SGI-1776] came in with an IC50 of 0.053 µM. Regarding `Cc1noc(C)c1-c1cc(O)cc([C@@H](O)c2ccccc2)c1` [(S)-(+)-8, 3-(3,5-Dimethylisoxazol-4-yl)-5-(hydroxy(phenyl)methyl)phenol], in data set [3], the “enantiomeric excess after incubation in buffer” value is greater than 98 % ee and the “purity after incubation in buffer” value was determined as 95%.

B1: H3K56Ac peptide (peptide)
peptide: ALREIRRYQKSTELLIRKLK
modifications: K(Ac) (acetyl-lysine) at the 10th residue (K56 of histone H3 by the peptide's name); K(biotin) at the C-terminal lysine
For B1, the binding result in data set [4] was “binds”.
